Experimental data: ChEMBL document CHEMBL3425482, “Structure-guided design and optimization of dipeptidyl inhibitors of norovirus 3CL protease. Structure-activity relationships and biochemical, X-ray crystallographic, cell-based, and in vivo studies” (J Med Chem, 2015)

System: not listed separately
Assay: Inhibition of Norovirus recombinant 3CL protease using Edans-EPDFHLQGPEDLAK-Dabcyl as substrate for 30 mins by fluorometry

Row | Structure (SMILES) | IC50 [µM]
1 | CCOP(=O)(OCC)C(O)[C@H](C[C@@H]1CCNC1=O)NC(=O)[C@H](CC1CCCCC1)NC(=O)OCc1ccccc1F (some centres not stated) | > 10
2 | CCOP(=O)(OCC)C(O)[C@H](C[C@@H]1CCNC1=O)NC(=O)[C@H](CC1CCCCC1)NC(=O)OCc1ccccc1Cl (some centres not stated) | > 10
3 | CC(C)C[C@H](NC(=O)OCc1cccc(Cl)c1)C(=O)N[C@@H](C[C@@H]1CCNC1=O)C(=O)C(=O)NC1CC1 | 5.5
4 | COc1ccccc1COC(=O)N[C@@H](CC1CCCCC1)C(=O)N[C@H](C=O)C[C@@H]1CCNC1=O | > 10
5 | O=C[C@H](C[C@@H]1CCNC1=O)NC(=O)[C@H](CC1CCCCC1)NC(=O)OCc1ccc(Cl)cc1 | 0.71
6 | O=C[C@H](C[C@@H]1CCNC1=O)NC(=O)[C@@H](NC(=O)OCc1cccc(Cl)c1)C1CCCCC1 | 5.1
7 | CC(C)C[C@H](NC(=O)OCc1ccccc1)C(=O)N[C@@H](C[C@@H]1CCNC1=O)C(O)S(=O)(=O)O (some centres not stated) | 0.8

More lines, now with the values ahead:

Row | IC50 [µM] | Structure (SMILES)
8 | 1.5 | O=C(N[C@@H](CC1CCCCC1)C(=O)N[C@@H](C[C@@H]1CCNC1=O)C(=O)C(=O)NC1CC1)OCc1cccc(Br)c1
9 | 0.3 | O=C[C@H](C[C@@H]1CCNC1=O)NC(=O)[C@H](CC1CCCCC1)NC(=O)OCc1ccccc1
10 | 0.15 | O=C(N[C@@H](CC1CCCCC1)C(=O)N[C@@H](C[C@@H]1CCNC1=O)C(O)S(=O)(=O)O)OCc1cccc(I)c1 (some centres not stated)
11 | 0.6 | O=C[C@H](C[C@@H]1CCNC1=O)NC(=O)[C@H](CC1CCCCC1)NC(=O)OCc1cccc([N+](=O)[O-])c1
12 | 0.1 | O=C(N[C@@H](CC1CCCCC1)C(=O)N[C@@H](C[C@@H]1CCNC1=O)C(O)S(=O)(=O)O)OCc1cccc(Cl)c1 (some centres not stated)
13 | > 10 | CS(=O)(=O)NC(=O)[C@H](C[C@@H]1CCNC1=O)NC(=O)[C@H](CC1CCCCC1)NC(=O)OCc1cccc(Cl)c1
14 | 4.5 | CC(C)(C)OC(=O)Nc1cccc(COC(=O)N[C@@H](CC2CCCCC2)C(=O)N[C@H](C=O)C[C@@H]2CCNC2=O)c1
15 | 0.25 | O=C(N[C@@H](CC1CCCCC1)C(=O)N[C@@H](C[C@@H]1CCNC1=O)C(=O)C(=O)NC1CC1)OCc1cccc(Cl)c1
16 | 0.8 | O=C[C@H](C[C@@H]1CCNC1=O)NC(=O)[C@H](CC1CCCCC1)NC(=O)OCc1ccccc1Cl

System: Norovirus
Assay: Antiviral activity against Norovirus infected in human HG23 cells
Format: functional, cell-based

Row | Structure (SMILES) | EC50 [µM]
17 | CCOP(=O)(OCC)C(O)[C@H](C[C@@H]1CCNC1=O)NC(=O)[C@H](CC1CCCCC1)NC(=O)OCc1ccccc1F (some centres not stated) | > 2
18 | CCOP(=O)(OCC)C(O)[C@H](C[C@@H]1CCNC1=O)NC(=O)[C@H](CC1CCCCC1)NC(=O)OCc1ccccc1Cl (some centres not stated) | 0.2
19 | CC(C)C[C@H](NC(=O)OCc1cccc(Cl)c1)C(=O)N[C@@H](C[C@@H]1CCNC1=O)C(=O)C(=O)NC1CC1 | 0.3
20 | COc1ccccc1COC(=O)N[C@@H](CC1CCCCC1)C(=O)N[C@H](C=O)C[C@@H]1CCNC1=O | 0.1
21 | O=C[C@H](C[C@@H]1CCNC1=O)NC(=O)[C@H](CC1CCCCC1)NC(=O)OCc1ccc(Cl)cc1 | 0.08
22 | O=C[C@H](C[C@@H]1CCNC1=O)NC(=O)[C@@H](NC(=O)OCc1cccc(Cl)c1)C1CCCCC1 | 0.15
23 | CC(C)C[C@H](NC(=O)OCc1ccccc1)C(=O)N[C@@H](C[C@@H]1CCNC1=O)C(O)S(=O)(=O)O (some centres not stated) | 0.3

More lines, now with the values ahead:

Row | EC50 [µM] | Structure (SMILES)
24 | 0.2 | O=C(N[C@@H](CC1CCCCC1)C(=O)N[C@@H](C[C@@H]1CCNC1=O)C(=O)C(=O)NC1CC1)OCc1cccc(Br)c1
25 | 0.06 | O=C[C@H](C[C@@H]1CCNC1=O)NC(=O)[C@H](CC1CCCCC1)NC(=O)OCc1ccccc1
26 | 0.04 | O=C(N[C@@H](CC1CCCCC1)C(=O)N[C@@H](C[C@@H]1CCNC1=O)C(O)S(=O)(=O)O)OCc1cccc(I)c1 (some centres not stated)
27 | 0.15 | O=C[C@H](C[C@@H]1CCNC1=O)NC(=O)[C@H](CC1CCCCC1)NC(=O)OCc1cccc([N+](=O)[O-])c1
28 | 0.02 | O=C(N[C@@H](CC1CCCCC1)C(=O)N[C@@H](C[C@@H]1CCNC1=O)C(O)S(=O)(=O)O)OCc1cccc(Cl)c1 (some centres not stated)
29 | > 2 | CS(=O)(=O)NC(=O)[C@H](C[C@@H]1CCNC1=O)NC(=O)[C@H](CC1CCCCC1)NC(=O)OCc1cccc(Cl)c1
30 | 1.5 | CC(C)(C)OC(=O)Nc1cccc(COC(=O)N[C@@H](CC2CCCCC2)C(=O)N[C@H](C=O)C[C@@H]2CCNC2=O)c1
31 | 0.085 | O=C(N[C@@H](CC1CCCCC1)C(=O)N[C@@H](C[C@@H]1CCNC1=O)C(=O)C(=O)NC1CC1)OCc1cccc(Cl)c1
32 | 0.08 | O=C[C@H](C[C@@H]1CCNC1=O)NC(=O)[C@H](CC1CCCCC1)NC(=O)OCc1ccccc1Cl
